# Assay results from patent US7723328B2, “Methods of facilitating cell survival using neurotrophin mimetics” (The University of North Carolina at Chapel Hill, priority 2005, dated 2010).
# “Also recorded” adds a separate entry of the source.
# Legend:
# NFκB-p65 = NFκB-p65 phosphorylation western blot in hippocampal cultures; format: cell-based, mouse; details: 20 nM
# Description: For assays of Trk, AKT, NFκB, and ERK activation, hippocampal neurons derived from E16-17 mice were cultured in poly-L-lysine coated six-well plates (Corning, Inc., Corning, N.Y., United States of America) in DMEM containing 10% FBS, followed by incubation in serum-free DMEM for 2 hours before addition of neurotrophins or compounds. At the indicated time points, neurons were harvested in lysis buffer consisting of: 20 mM Tris, pH 8.0, 137 mM NaCl, 1% Igepal CA-630, 10% glycerol, 1 mM PMSF, 10 μg/ml aprotinin, 1 μg/ml leupeptin, 500 μM orthovanadate (Zhou, J., Valletta, J. S., Grimes, M. L., Mobley, W. C. (1995) J Neurochem 65, 1146-1156).
# Lysates were centrifuged, the supernatant collected, and protein concentrations determined using the BCA Protein Assay Reagent obtained from Pierce (Rockford, Ill., United States of America). Western blots were performed as described previously (Yang, T. et al. (2003) J Neurosci 23, 3353-3363). Western blot signals were detected using the ECL Chemiluminescence System obtained by Amersham (Piscataway, N.J., United States of America) (Yang, T. et al. (2003) J Neurosci 23, 3353-3363).
# hippocampal neurons [1] = test: Hippocampal neuron survival with p75NTR antisera (antibody inhibition); format: cell-based, mouse; details: antiserum 1:100, 48 h
# Description: (§1) Hippocampal neurons were prepared from E16-17 mouse embryos as previously described (Yang. T. et al. (2003) J Neurosci 23, 3353-3363). […] For studies employing p75^NTR+/+ and p75^NTR−/− neurons, mice carrying a mutation in exon 3 of the p75^NTR gene (Lee, K. F. et al. (1992) Cell 69, 737-749) were bred onto a B6 congenic background (>10 B6 backcrosses).
# (§2) After 48 hours in culture, cell survival was assessed as previously described (Longo, F. M., Manthorpe. M., Xie. Y. M., Varon, S. (1997) J Neurosci Res 48, 1-17) using a combination of standard morphological criteria along with visual determination of whether a given cell converted MTT to its blue formazan product. The number of surviving neurons was determined by counting the total number of cells in each well that were both morphologically intact and filed with blue product (Longo F. M., Manthorpe. M., Xie, Y. M., Varon, S. (1997) J Neurosci Res 48, 1-17). For each neurotrophin or compound concentration, duplicate wells were counted and the resulting values averaged. Activity of each compound was confirmed by blinded counts. Counts were normalized to survival achieved with 25 ng/ml BDNF or to baseline survival. Fitting of dose-responsive curves was performed with Sigmaplot obtained from SYSTAT Software Inc. (Richmond, Calif., United States of America).
# (§3) For all studies applying signaling inhibitors, p75^NTR antibodies or p75^NTR−/− neurons, survival was assessed at 48 hours.
# hippocampal neurons [2] = test: Hippocampal neuron survival with signaling pathway inhibitors; format: cell-based, mouse; details: BDNF/NGF 25 ng/ml, compounds 5 nM, 48 h
# Description: as §1, §2, §3
# p75^NTR−/− cells = test: Survival of p75NTR+/+ versus p75NTR-/- hippocampal neurons; format: cell-based, mouse; details: neurotrophins 1.8 nM, compounds 5 nM
# Description: as §1, §2, §3
# p75^NTR = target: T1, p75^NTR (Homo sapiens, UniProt P08138); test: proNGF binding to p75NTR by ELISA; details: 100 ng/ml proNGF
# T1 construct: purchased R&D Systems
# T1 sequence (P08138 with tags, fused parts or gaps limits assumed): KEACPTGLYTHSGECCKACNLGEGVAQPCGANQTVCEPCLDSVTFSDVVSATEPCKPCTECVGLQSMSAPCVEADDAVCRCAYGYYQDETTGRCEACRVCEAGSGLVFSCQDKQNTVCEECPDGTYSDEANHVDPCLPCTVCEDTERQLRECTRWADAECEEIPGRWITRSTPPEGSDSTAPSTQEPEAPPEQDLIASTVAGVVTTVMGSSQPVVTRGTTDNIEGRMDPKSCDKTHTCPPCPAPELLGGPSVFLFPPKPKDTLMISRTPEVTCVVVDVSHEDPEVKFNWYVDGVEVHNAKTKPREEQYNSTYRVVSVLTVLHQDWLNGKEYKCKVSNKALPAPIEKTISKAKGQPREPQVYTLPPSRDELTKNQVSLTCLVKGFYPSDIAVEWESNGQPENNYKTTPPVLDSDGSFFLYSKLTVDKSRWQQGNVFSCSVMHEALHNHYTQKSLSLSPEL
# Description: Briefly, 96-well plates were incubated with 0.1 pmol (at 1 nM) of p75/Fc or TrkA/Fc recombinant protein obtained from R&D System (Minneapolis, Minn., United States of America) overnight at 4° C. followed by incubation with blocking buffer for 1 hour at room temperature. […] Plates were then washed five times with Tris-buffered saline (TBS) containing 0.05% Tween-20 and incubated with anti-NGF rabbit polyclonal antibody overnight at 4° C. Following five washes with TBS, wells were incubated for 2.5 hours at room temperature with anti-rabbit IgG HRP conjugate and washed five times. 3,3′,5,5′-tetramethyl-benzidine substrate was added and the optical density measured at 450 nm.
# [3] = target: T2, p75^NTR-expressing 3T3 cells (Homo sapiens, UniProt P08138); test: p75NTR antibody (Ab 9651) competition on 3T3 cells, western blot; format: binding; details: 100 nM compound, 90 min, 4° C.
# T2 construct: host or cells: NIH3T3 fibroblasts
# T2 sequence (P08138 29-427): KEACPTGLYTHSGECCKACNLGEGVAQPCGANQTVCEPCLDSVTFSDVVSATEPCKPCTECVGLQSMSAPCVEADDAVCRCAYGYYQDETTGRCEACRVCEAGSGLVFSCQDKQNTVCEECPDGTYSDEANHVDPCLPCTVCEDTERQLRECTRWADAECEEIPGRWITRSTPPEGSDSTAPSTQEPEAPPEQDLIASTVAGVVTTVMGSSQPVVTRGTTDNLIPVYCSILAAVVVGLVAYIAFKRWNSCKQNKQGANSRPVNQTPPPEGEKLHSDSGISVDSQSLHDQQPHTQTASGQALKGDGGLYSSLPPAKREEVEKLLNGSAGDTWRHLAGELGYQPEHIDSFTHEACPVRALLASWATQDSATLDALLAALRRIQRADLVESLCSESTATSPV
# Description: NIH3T3 fibroblasts expressing either null vector or p75^NTR (Huang, C. S. et al. (1999) J Biol Chem 274, 36707-36714) were obtained from Dr. William Mobley (Stanford University, Calif., United States of America). Cells were grown in monolayers, harvested in PBS with 2 mM EDTA, pelleted, and resuspended in ice-cold DMEM HEPES with 1 mg/ml BSA. 6-9×10^6 cells from one confluent 6-well plate were used for each experimental point.
# For binding analysis, p75^NTR antibody (1:100) was allowed to bind in the presence or absence of 100 nM p75-binding compounds for 90 minutes at 4° C. with gentle rotation, followed by four washes in PBS. The final cell pellet was resuspended in lysis buffer.
# Western blots were performed as described above. To detect the presence of p75^NTR antibody, blots were probed with horseradish peroxidase-linked goat anti-rabbit IgG obtained from Amersham/Pharmacia Biotech (Piscataway, N.J., United States of America). Signals were detected by the ECL chemiluminescence system obtained from Amersham Biosciences (Piscataway, […]., United States of America). To control for variation in protein loading, the blot was stripped and reprobed with β-actin monoclonal antibody obtained from Sigma (St. Louis, Mo., United States of America).
structure (smiles),measurement,setting,value
CCC(C)C(N)C(=O)NCCN1CCOCC1 (stereo not drawn) [Compound 4],increase in NFκB-p65 phosphorylation,NFκB-p65,approximately 1.5 fold
same,effect of Ab 9651 on promotion of neuron survival by the substance,hippocampal neurons [1],completely blocked; also recorded: completely inhibits
same,survival versus CM in the presence of Ab 9651,hippocampal neurons [1],not significant
same,effect of PD98059 (ERK inhibitor) on survival promoted by the substance,hippocampal neurons [2]; PD98059 50 μM,no significant decrease
same,effect of SN50 (NFκB translocation inhibitor) on survival promoted by the substance,hippocampal neurons [2]; SN50 2.5 μg/ml,significantly reduced
same,effect of p75NTR-deficiency on promotion of neuron survival by the substance,p75^NTR−/− cells,completely inhibits
same,proNGF ELISA signal versus proNGF alone,p75^NTR; P<0.01,significantly less than proNGF alone
same,decrement of proNGF binding to p75NTR,"p75^NTR; at the highest concentration (range 1500 nM to 10,000 nM)",approximately 30%
same,displacement of anti-p75NTR Ab 9651,[3],significantly displaced
